Results published in ChEMBL document CHEMBL1135590, “Design of substrate-based inhibitors of human beta-secretase” (J Med Chem, 2002).
Starred links: 1 amine or outer side, 2 acyl side, 3 side chain; linkers in the order of their positions; H or OH if unused. Non-standard residues stand in square brackets, D forms with d. Residues, ends and D or L forms follow the SMILES beside them. ξ: configuration not given here. LeuΨ(ξCHOHCH2)Val = CC(C)C[C@H](N[*:1])C(O)C[C@H](C(=O)[*:2])C(C)C; X2 = CC(=O)O[C@@H](CC(=O)[*:2])[C@H](CC(C)C)N[*:1]; Sta(3ξ) = CC(C)C[C@H](N[*:1])C(O)CC(=O)[*:2]; X3 = CC(C)C[C@H](N[*:1])[C@H](O)CC(=O)[*:2]; X4 = O=C(CC(O)[C@H](Cc1ccccc1)N[*:1])[*:2]; X5 = O=C(CC(O)[C@H](CC1CCCCC1)N[*:1])[*:2]; Sta = CC(C)C[C@H](N)[C@@H](O)CC(=O)O; X1 = CC(C)CC(N[*:1])C(O)CC(=O)[*:2]; Tle = CC(C)(C)[C@H](N)C(=O)O

Target: Beta-secretase 1 (Homo sapiens, UniProt P56817)
Sequence (P56817 whole entry): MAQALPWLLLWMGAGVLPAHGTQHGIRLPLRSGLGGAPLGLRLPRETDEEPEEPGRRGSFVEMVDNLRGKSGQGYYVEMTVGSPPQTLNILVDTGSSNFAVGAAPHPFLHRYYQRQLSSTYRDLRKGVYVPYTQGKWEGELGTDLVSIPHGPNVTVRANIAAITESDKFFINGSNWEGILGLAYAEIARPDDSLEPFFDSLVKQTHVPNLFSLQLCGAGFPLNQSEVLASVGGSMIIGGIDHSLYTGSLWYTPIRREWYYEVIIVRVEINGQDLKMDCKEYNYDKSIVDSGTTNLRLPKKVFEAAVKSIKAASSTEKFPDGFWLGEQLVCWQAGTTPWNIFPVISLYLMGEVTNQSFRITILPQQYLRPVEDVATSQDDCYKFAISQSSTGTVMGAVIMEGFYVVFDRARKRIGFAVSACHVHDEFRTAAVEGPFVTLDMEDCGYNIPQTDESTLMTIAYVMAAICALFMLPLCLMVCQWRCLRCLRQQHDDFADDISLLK
Test: Inhibition of human brain beta-secretase, using MBPC125Swe (maltose-binding-protein C-125 Swedish) assay
Type: biochemical

| Molecule | IC50 |
| --- | --- |
| CC[C@H](C)[C@H](NC(=O)[C@H](CCC(=O)O)NC(=O)[C@H](CCC(=O)O)NC(=O)[C@@H](NC(=O)[C@@H](N)CCCCN)[C@@H](C)O)C(=O)N[C@@H](CO)C(=O)N[C@@H](CCC(=O)O)C(=O)N[C@H](C(=O)N[C@@H](CC(N)=O)C(=O)N[C@@H](CC(C)C)[C@@H](O)CC(=O)N[C@@H](CC(=O)O)C(=O)N[C@@H](C)C(=O)N[C@@H](CCC(=O)O)C(=O)N[C@@H](Cc1ccccc1)C(=O)N[C@@H](CCCN=C(N)N)C(=O)O)C(C)C (H-KTEEISEVN[Sta]DAEFR-OH) | 60 µM |
| H-TNIKTEEISEVNVDAEFR-OH | > 200 µM |
| CSCC[C@H](NC(=O)[C@@H](NC(C)=O)C(C)C)C(=O)N[C@@H](CC(C)C)C(O)CC(=O)N[C@@H](CC(=O)O)C(=O)N[C@@H](C)C(=O)N[C@@H](CCC(=O)O)C(=O)N[C@@H](C)C(=O)O (some centres not stated) (Ac-VM[Sta(3ξ)]DAEA-OH) | > 100 µM |
| CC(C)CC(NC(=O)[C@@H](N)CC(N)=O)C(O)CC(=O)N[C@H](C(=O)N[C@@H](C)C(=O)N[C@@H](CCC(=O)O)C(=O)N[C@@H](Cc1ccccc1)C(=O)O)C(C)C (some centres not stated) (H-N[X1]VAEF-OH) | > 150 µM |
| H-TNIKTEEISEVNLDAEFR-OH | > 200 µM |
| H-TNIKTEEISEVNEDAEFR-OH | > 200 µM |
| H-TNIKTEEISEVNMDAEFR-OH | > 200 µM |
| H-TNIKTEEISEVNGDAEFR-OH | > 200 µM |
| CSCC[C@H](NC(=O)[C@@H](NC(C)=O)C(C)C)C(=O)NC(CC(C)C)C(O)CC(=O)N[C@H](C(=O)N[C@@H](C)C(=O)O)C(C)C (some centres not stated) (Ac-VM[X1]VA-OH) | > 100 µM |
| H-TNIKTEEISEVNLAAEFR-OH | > 200 µM |
| CC[C@H](C)[C@H](NC(=O)[C@H](CCC(=O)O)NC(=O)[C@H](CCC(=O)O)NC(=O)[C@@H](NC(=O)[C@@H](N)CCCCN)[C@@H](C)O)C(=O)N[C@@H](CO)C(=O)N[C@@H](CCC(=O)O)C(=O)N[C@H](C(=O)N[C@@H](CC(N)=O)C(=O)N[C@@H](CC(C)C)[C@H](O)CC(=O)N[C@@H](CC(=O)O)C(=O)N[C@@H](C)C(=O)N[C@@H](CCC(=O)O)C(=O)N[C@@H](Cc1ccccc1)C(=O)O)C(C)C (H-KTEEISEVN[X3]DAEF-OH) | > 200 µM |
| CC[C@H](C)[C@H](NC(=O)[C@H](CCC(=O)O)NC(=O)[C@H](CCC(=O)O)NC(=O)[C@@H](NC(=O)[C@@H](N)CCCCN)[C@@H](C)O)C(=O)N[C@@H](CO)C(=O)N[C@@H](CCC(=O)O)C(=O)N[C@H](C(=O)N[C@@H](CC(N)=O)C(=O)N[C@@H](CC(C)C)[C@H](CC(=O)N[C@@H](CC(=O)O)C(=O)N[C@@H](C)C(=O)N[C@@H](CCC(=O)O)C(=O)N[C@@H](Cc1ccccc1)C(=O)O)OC(C)=O)C(C)C (H-KTEEISEVN[X2]DAEF-OH) | > 200 µM |
| H-TNIKTEEISEVNFDAEFR-OH | > 200 µM |
| CSCC[C@H](NC(=O)[C@@H](NC(C)=O)C(C)C)C(=O)NC(CC(C)C)C(O)CC(=O)N[C@H](C(=O)O)C(C)C (some centres not stated) | > 100 µM |
| H-TNIKTEEISEVNLGAEFR-OH | 119 µM |
| H-TNIKTEEISEVNHDAEFR-OH | > 200 µM |
| CSCC[C@H](NC(=O)[C@@H](NC(C)=O)C(C)C)C(=O)NC(CC(C)C)C(O)CC(=O)N1CCC[C@@H]1C(=O)N[C@@H](C)C(=O)N[C@@H](CCC(=O)O)C(=O)N[C@@H](Cc1ccccc1)C(=O)O (some centres not stated) | > 200 µM |
| H-TNIKTEEISEVNRDAEFR-OH | > 200 µM |
| CSCC[C@H](NC(=O)[C@@H](NC(C)=O)C(C)C)C(=O)NC(CC(C)C)C(O)CC(=O)N[C@H](C(=O)N[C@@H](C)C(=O)N[C@@H](CCC(=O)O)C(=O)N[C@@H](Cc1ccccc1)C(=O)O)[C@H](C)O (some centres not stated) | 100 µM |
| H-TNIKTEEISEVNTDAEFR-OH | > 200 µM |
| H-TNIKTEEISEVNADAEFR-OH | > 200 µM |

The next molecules have a lower IC50 than those just listed; values first:

| IC50 | Molecule |
| --- | --- |
| 0.5 µM | CC(=O)N[C@H](C(=O)N[C@@H](CC(N)=O)C(=O)NC(CC(C)C)C(O)CC(=O)N[C@H](C(=O)N[C@@H](C)C(=O)N[C@@H](CCC(=O)O)C(=O)N[C@@H](Cc1ccccc1)C(=O)O)C(C)C)C(C)C (some centres not stated) (Ac-VN[X1]VAEF-OH) |
| 45 µM | H-TNIKTEEISEVNLLAEFR-OH |
| 9 µM | CC(C)C[C@H](NC(=O)[C@H](CC(N)=O)NC(=O)[C@@H](N)C(C)C)C(O)CC(=O)N[C@H](C(=O)N[C@@H](C)C(=O)N[C@@H](CCC(=O)O)C(=O)N[C@@H](Cc1ccccc1)C(=O)O)C(C)C (some centres not stated) (H-VN[Sta(3ξ)]VAEF-OH) |
| 0.02 µM | CSCC[C@H](NC(=O)[C@@H](NC(C)=O)C(C)C)C(=O)N[C@@H](CC(C)C)C(O)C[C@H](C(=O)N[C@@H](C)C(=O)N[C@@H](CCC(=O)O)C(=O)N[C@@H](Cc1ccccc1)C(=O)O)C(C)C (some centres not stated) (Ac-VM[LeuΨ(ξCHOHCH2)Val]AEF-OH) |
| 0.03 µM | CC[C@H](C)[C@H](NC(=O)[C@H](CCC(=O)O)NC(=O)[C@H](CCC(=O)O)NC(=O)[C@@H](NC(=O)[C@@H](N)CCCCN)[C@@H](C)O)C(=O)N[C@@H](CO)C(=O)N[C@@H](CCC(=O)O)C(=O)N[C@H](C(=O)N[C@@H](CC(N)=O)C(=O)N[C@@H](CC(C)C)[C@@H](O)CC(=O)N[C@H](C(=O)N[C@@H](C)C(=O)N[C@@H](CCC(=O)O)C(=O)N[C@@H](Cc1ccccc1)C(=O)O)C(C)C)C(C)C (H-KTEEISEVN[Sta]VAEF-OH) |
| 40 µM | CC[C@H](C)[C@H](NC(=O)[C@H](CCC(=O)O)NC(=O)[C@H](CCC(=O)O)NC(=O)[C@@H](NC(=O)[C@@H](N)CCCCN)[C@@H](C)O)C(=O)N[C@@H](CO)C(=O)N[C@@H](CCC(=O)O)C(=O)N[C@H](C(=O)N[C@@H](CC(N)=O)C(=O)N[C@@H](CC(C)C)[C@@H](O)CC(=O)N[C@@H](CC(=O)O)C(=O)N[C@@H](C)C(=O)N[C@@H](CCC(=O)O)C(=O)N[C@@H](Cc1ccccc1)C(=O)O)C(C)C (H-KTEEISEVN[Sta]DAEF-OH) |
| 5 µM | CSCC[C@H](NC(=O)[C@@H](NC(C)=O)C(C)C)C(=O)NC(CC(C)C)C(O)CC(=O)N[C@@H](C)C(=O)N[C@@H](C)C(=O)N[C@@H](CCC(=O)O)C(=O)N[C@@H](Cc1ccccc1)C(=O)O (some centres not stated) (Ac-VM[X1]AAEF-OH) |
| 40 µM | H-TNIKTEEISEVNLKAEFR-OH |
| 0.3 µM | CSCC[C@H](NC(=O)[C@@H](NC(C)=O)C(C)C)C(=O)NC(CC(C)C)C(O)CC(=O)N[C@H](C(=O)N[C@@H](C)C(=O)N[C@@H](CCC(=O)O)C(=O)N[C@@H](Cc1ccccc1)C(=O)O)C(C)C (some centres not stated) (Ac-VM[X1]VAEF-OH) |
| 0.5 µM | CC[C@H](C)[C@H](NC(=O)[C@H](CCC(=O)O)NC(=O)[C@H](CCC(=O)O)NC(=O)[C@@H](NC(=O)[C@@H](N)CCCCN)[C@@H](C)O)C(=O)N[C@@H](CO)C(=O)N[C@@H](CCC(=O)O)C(=O)N[C@H](C(=O)N[C@@H](CC(N)=O)C(=O)N[C@@H](CC(C)C)[C@@H](O)CC(=O)N[C@@H](C)C(=O)N[C@@H](C)C(=O)N[C@@H](CCC(=O)O)C(=O)N[C@@H](Cc1ccccc1)C(=O)O)C(C)C (H-KTEEISEVN[Sta]AAEF-OH) |
| 0.04 µM | CC(C)C[C@H](NC(=O)[C@H](CC(N)=O)NC(=O)[C@@H](NC(=O)[C@@H](N)CCC(=O)O)C(C)C)C(O)CC(=O)N[C@H](C(=O)N[C@@H](C)C(=O)N[C@@H](CCC(=O)O)C(=O)N[C@@H](Cc1ccccc1)C(=O)O)C(C)C (some centres not stated) (H-EVN[Sta(3ξ)]VAEF-OH) |
| 0.5 µM | CSCC[C@H](NC(=O)[C@@H](NC(C)=O)C(C)C)C(=O)N[C@@H](Cc1ccccc1)C(O)CC(=O)N[C@H](C(=O)N[C@@H](C)C(=O)N[C@@H](CCC(=O)O)C(=O)N[C@@H](Cc1ccccc1)C(=O)O)C(C)C (some centres not stated) (Ac-VM[X4]VAEF-OH) |
| 40 µM | H-TNIKTEEISEVNLFAEFR-OH |
| 1.2 µM | CSCC[C@H](NC(=O)[C@@H](NC(C)=O)C(C)C)C(=O)N[C@@H](CC(C)C)C(O)CC(=O)N[C@H](C(=O)N[C@@H](C)C(=O)N[C@@H](CCC(=O)O)C(=O)N[C@@H](C)C(=O)O)C(C)C (some centres not stated) (Ac-VM[Sta(3ξ)]VAEA-OH) |
| 15 µM | CSCC[C@H](NC(=O)[C@@H](NC(C)=O)C(C)C)C(=O)NC(CC(C)C)C(O)CC(=O)N[C@@H](Cc1ccccc1)C(=O)N[C@@H](C)C(=O)N[C@@H](CCC(=O)O)C(=O)N[C@@H](Cc1ccccc1)C(=O)O (some centres not stated) (Ac-VM[X1]FAEF-OH) |
| 2.5 µM | CC(C)C[C@H](NC(=O)[C@H](CC(N)=O)NC(=O)[C@H](C)NC(=O)[C@@H](N)CCC(=O)O)C(O)CC(=O)N[C@H](C(=O)N[C@@H](C)C(=O)N[C@@H](CCC(=O)O)C(=O)N[C@@H](Cc1ccccc1)C(=O)O)C(C)C (some centres not stated) (H-EAN[Sta(3ξ)]VAEF-OH) |
| 5 µM | CSCC[C@H](NC(=O)[C@@H](NC(C)=O)C(C)C)C(=O)N[C@@H](CC1CCCCC1)C(O)CC(=O)N[C@H](C(=O)N[C@@H](C)C(=O)N[C@@H](CCC(=O)O)C(=O)N[C@@H](Cc1ccccc1)C(=O)O)C(C)C (some centres not stated) (Ac-VM[X5]VAEF-OH) |
| 1 µM | CSCC[C@H](NC(=O)[C@@H](NC(C)=O)C(C)C)C(=O)NC(CC(C)C)C(O)CC(=O)N[C@H](C(=O)N[C@@H](C)C(=O)N[C@@H](CCC(=O)O)C(=O)O)C(C)C (some centres not stated) (Ac-VM[X1]VAE-OH) |
| 2 µM | CSCC[C@H](NC(=O)[C@@H](NC(C)=O)C(C)C)C(=O)N[C@@H](CC(C)C)C(O)CC(=O)N[C@H](C(=O)N[C@@H](C)C(=O)N[C@@H](C)C(=O)N[C@@H](Cc1ccccc1)C(=O)O)C(C)C (some centres not stated) (Ac-VM[Sta(3ξ)]VAAF-OH) |
| 20 µM | CSCC[C@H](NC(=O)[C@@H](NC(C)=O)C(C)C)C(=O)N[C@@H](CC(C)C)C(O)CC(=O)N[C@H](C(=O)N[C@@H](C)C(=O)N[C@@H](CCC(=O)O)C(=O)N[C@@H](C)C(=O)O)C(C)(C)C (some centres not stated) (Ac-VM[Sta(3ξ)][Tle]AEA-OH) |
| 3 µM | H-TNIKTEEISEVNLVAEFR-OH |
